This is an account of results in patent US10294272B2, “Peptides with antagonistic activities against natural CXCR4” (Pharis Biotec GmbH, priority 2013, dated 2019).

The assay deals with X4 tropic HIV-1 NL4-3. The following applies: blocking X4 tropic HIV-1 NL4-3 infection. On the procedure: Antiviral screening was performed using the X4 HIV-1 NL4-3 molecular clone.
HIV-1, HIV-2 and SIV molecular clones differing in coreceptor tropism were generated by transient transfection of 293T cells with proviral DNA by the calcium phosphate method (CalPhos™ Mammalian Transfection Kit, Clon-tech). After overnight incubation, the transfection mixture was replaced by DMEM medium supplemented with 10% FCS, and virus stocks were harvested 48 hrs post-transfection. Subsequently, the culture supernatant was centrifuged for 5 min at 3000 rpm to remove cell debris. The resulting virus stock was quantified by p24 (HIV) or p27 (SIV) antigen ELISA. Virus stocks were either used immediately or stored in aliquots at −80° C.
TZM-bl reporter cells containing the LacZ reporter gene under the control of the HIV-1 promoter were seeded in 96-well F-bottom microtiter plates (Greiner Bio-One). On the following day, the cells were preincubated with various dilutions of the peptide of SEQ ID NO 16 or its derivatives for 1 hour and subsequently infected with HIV-1, HIV-2, and SIV. Infection rates were determined after 2 days using the one-step Tropix Gal-Screen Kit, as recommended by the manufacturer.

Positions of bridges follow the written chain, without caps; N, C: chain ends. Residues, ends and D or L forms follow the SMILES beside them. Chains are numbered I, II in the order given. No end group written: not given here.

Consider “LVRYTKKVPQVS [Derivative 408-419, LVRYTKKVPQVS]”, for which the IC50 (in general, the point on the concentration scale where inhibition reaches its midpoint) amounted to 5490 nM. In other words, the single-digit micromolar range.
“IVRWSKKVPCVS [408I-419 WSC02, IVRWSKKVPCVS]”: the IC50 is 310 nM.
In turn, “IVRWTCKVPQVS [408I-419 WCO2, IVRWTCKVPQVS]” yielded an IC50 of 2100 nM.
Turning to IVRYSKKVPQC [408I-418 SC, IVRYSKKVPQC], the half-inhibitory concentration (IC50) was 2940 nM.
For “IVRWTKKVPQVS [408I-419 Y411W, IVRWTKKVPQVS]”, 1540 nM corresponded to half-maximal inhibition (IC50).
As for “IVRYTKCVPQVS [408I-419 K414C, IVRYTKCVPQVS]”, the IC50 worked out at 5870 nM.
As to LARYTKKV [408-415-V409A, LARYTKKV], the IC50 was determined as 32900 nM.
“IVKYTKKVPQVS [408I-419 R410K, IVKYTKKVPQVS]”: the IC50 was more than 100000 nM.
Regarding `CC[C@H](C)[C@H](N)C(=O)N[C@H](C(=O)N[C@@H](CCCNC(=N)N)C(=O)N[C@@H](Cc1c[nH]c2ccccc12)C(=O)N[C@@H](CSSC[C@H](NC(=O)[C@H](Cc1c[nH]c2ccccc12)NC(=O)[C@H](CCCNC(=N)N)NC(=O)[C@@H](NC(=O)[C@@H](N)[C@@H](C)CC)C(C)C)C(=O)N[C@@H](CCCCN)C(=O)N[C@@H](CCCCN)C(=O)N[C@H](C(=O)N1CCC[C@H]1C(=O)N[C@@H](CCC(N)=O)C(=O)N[C@H](C(=O)N[C@@H](CO)C(=O)O)C(C)C)C(C)C)C(=O)N[C@@H](CCCCN)C(=O)N[C@@H](CCCCN)C(=O)N[C@H](C(=O)N1CCC[C@H]1C(=O)N[C@@H](CCC(N)=O)C(=O)N[C@H](C(=O)N[C@@H](CO)C(=O)O)C(C)C)C(C)C)C(C)C` [408I-419 WC03 x2, (IVRWCKKVPQVS)2] (I: H-IVRWCKKVPQVS-OH / II: H-IVRWCKKVPQVS-OH; disulfide I:5-II:5; N-terminus and C-terminus assumed), the IC50 amounted to 600 nM.
In the case of “IVRYSKKVPQVS [408I-419 T412S, IVRYSKKVPQVS]” it was 2090 nM.
On to “LVRYTKKVPQV [Derivative 408-418, LVRYTKKVPQV]”, for which half-maximal inhibition (IC50) required 26800 nM.
In the case of `CC[C@H](C)[C@H](N)C(=O)N[C@H](C(=O)N[C@@H](CCCNC(=N)N)C(=O)N[C@@H](Cc1c[nH]c2ccccc12)C(=O)N[C@@H](CO)C(=O)N[C@@H](CCCCN)C(=O)N[C@@H](CCCCN)C(=O)N[C@H](C(=O)N1CCC[C@H]1C(=O)N[C@@H](CCC(N)=O)C(=O)N[C@@H](CSSC[C@H](NC(=O)[C@H](CCC(N)=O)NC(=O)[C@@H]1CCCN1C(=O)[C@@H](NC(=O)[C@H](CCCCN)NC(=O)[C@H](CCCCN)NC(=O)[C@H](CO)NC(=O)[C@H](Cc1c[nH]c2ccccc12)NC(=O)[C@H](CCCNC(=N)N)NC(=O)[C@@H](NC(=O)[C@@H](N)[C@@H](C)CC)C(C)C)C(C)C)C(=O)N[C@@H](CO)C(=O)O)C(=O)N[C@@H](CO)C(=O)O)C(C)C)C(C)C` [408I-419 WSC01 x2, (IVRWSKKVPQCS)2] (I: H-IVRWSKKVPQCS-OH / II: H-IVRWSKKVPQCS-OH; disulfide I:11-II:11; N-terminus and C-terminus assumed) it was 180 nM; in that of “IVRWTKKVPQVC [408I-419 WC01, IVRWTKKVPQVC]”, 1650 nM.
For “IVRFTKKVPQVS [408I-419 Y411F, IVRFTKKVPQVS]”, the IC50 was 3890 nM. Against the preceding molecule, the IC50 is about 2.4-fold higher.
In the case of “IVHYTKKVPQVS [408I-419 R410H, IVHYTKKVPQVS]” it was more than 100000 nM.
Consider `CC[C@H](C)[C@H](N)C(=O)N[C@H](C(=O)N[C@@H](CCCNC(=N)N)C(=O)N[C@@H](Cc1ccc(O)cc1)C(=O)N[C@H](C(=O)N[C@@H](CCCCN)C(=O)N[C@@H](CSSC[C@H](NC(=O)[C@H](CCCCN)NC(=O)[C@@H](NC(=O)[C@H](Cc1ccc(O)cc1)NC(=O)[C@H](CCCNC(=N)N)NC(=O)[C@@H](NC(=O)[C@@H](N)[C@@H](C)CC)C(C)C)[C@@H](C)O)C(=O)N[C@H](C(=O)N1CCC[C@H]1C(=O)N[C@@H](CCC(N)=O)C(=O)N[C@H](C(=O)N[C@@H](CO)C(=O)O)C(C)C)C(C)C)C(=O)N[C@H](C(=O)N1CCC[C@H]1C(=O)N[C@@H](CCC(N)=O)C(=O)N[C@H](C(=O)N[C@@H](CO)C(=O)O)C(C)C)C(C)C)[C@@H](C)O)C(C)C` [408I-419 K414C x2, (IVRYTKCVPQVS)2] (I: H-IVRYTKCVPQVS-OH / II: H-IVRYTKCVPQVS-OH; disulfide I:7-II:7; N-terminus and C-terminus assumed), for which the IC50 was 1050 nM.
In the case of `CC[C@H](C)[C@H](N)C(=O)N[C@H](C(=O)N[C@@H](CCCNC(=N)N)C(=O)N[C@@H](Cc1ccc(O)cc1)C(=O)N[C@@H](CO)C(=O)N[C@@H](CCCCN)C(=O)N[C@@H](CCCCN)C(=O)N[C@H](C(=O)N1CCC[C@H]1C(=O)N[C@@H](CCC(N)=O)C(=O)N[C@@H](CSSC[C@H](NC(=O)[C@H](CCC(N)=O)NC(=O)[C@@H]1CCCN1C(=O)[C@@H](NC(=O)[C@H](CCCCN)NC(=O)[C@H](CCCCN)NC(=O)[C@H](CO)NC(=O)[C@H](Cc1ccc(O)cc1)NC(=O)[C@H](CCCNC(=N)N)NC(=O)[C@@H](NC(=O)[C@@H](N)[C@@H](C)CC)C(C)C)C(C)C)C(=O)O)C(=O)O)C(C)C)C(C)C` [408I-418 SC x2, (IVRYSKKVPQC)2] (I: H-IVRYSKKVPQC-OH / II: H-IVRYSKKVPQC-OH; disulfide I:11-II:11; N-terminus and C-terminus assumed) it was 390 nM.
Then “IVRSTKKVPQVS [408I-419 Y411S, IVRSTKKVPQVS]”, with more than 100000 nM; and “IVRWSKKVCQVS [408I-419 WSC03, IVRWSKKVCQVS]”, with 1510 nM; and “IVRWCKKVPQVS [408I-419 WC03, IVRWCKKVPQVS]”, with 1820 nM.
Then `CC[C@H](C)[C@H](N)C(=O)N[C@H](C(=O)N[C@@H](CCCNC(=N)N)C(=O)N[C@@H](Cc1c[nH]c2ccccc12)C(=O)N[C@@H](CO)C(=O)N[C@@H](CCCCN)C(=O)N[C@@H](CCCCN)C(=O)N[C@H](C(=O)N1CCC[C@H]1C(=O)N[C@@H](CSSC[C@H](NC(=O)[C@@H]1CCCN1C(=O)[C@@H](NC(=O)[C@H](CCCCN)NC(=O)[C@H](CCCCN)NC(=O)[C@H](CO)NC(=O)[C@H](Cc1c[nH]c2ccccc12)NC(=O)[C@H](CCCNC(=N)N)NC(=O)[C@@H](NC(=O)[C@@H](N)[C@@H](C)CC)C(C)C)C(C)C)C(=O)N[C@H](C(=O)N[C@@H](CO)C(=O)O)C(C)C)C(=O)N[C@H](C(=O)N[C@@H](CO)C(=O)O)C(C)C)C(C)C)C(C)C` [408I-419 WSC02 x2, (IVRWSKKVPCVS)2] (I: H-IVRWSKKVPCVS-OH / II: H-IVRWSKKVPCVS-OH; disulfide I:10-II:10), with 120 nM.
On to `CC[C@H](C)[C@H](N)C(=O)N[C@H](C(=O)N[C@@H](CCCNC(=N)N)C(=O)N[C@@H](Cc1ccc(O)cc1)C(=O)N[C@H](C(=O)N[C@@H](CCCCN)C(=O)N[C@@H](CCCCN)C(=O)N[C@H](C(=O)N1CCC[C@H]1C(=O)N[C@@H](CCC(N)=O)C(=O)N[C@@H](CSSC[C@H](NC(=O)[C@H](CCC(N)=O)NC(=O)[C@@H]1CCCN1C(=O)[C@@H](NC(=O)[C@H](CCCCN)NC(=O)[C@H](CCCCN)NC(=O)[C@@H](NC(=O)[C@H](Cc1ccc(O)cc1)NC(=O)[C@H](CCCNC(=N)N)NC(=O)[C@@H](NC(=O)[C@@H](N)[C@@H](C)CC)C(C)C)[C@@H](C)O)C(C)C)C(=O)N[C@@H](CO)C(=O)O)C(=O)N[C@@H](CO)C(=O)O)C(C)C)[C@@H](C)O)C(C)C` [408I-419 V418C x2, (IVRYTKKVPQCS)2] (I: H-IVRYTKKVPQCS-OH / II: H-IVRYTKKVPQCS-OH; disulfide I:11-II:11; N-terminus and C-terminus assumed), for which the IC50 is 460 nM. This IC50 is about 3.8-fold higher than that of the molecule before.
On to “IVRWSKKVPQCS [408I-419 WSC01, IVRWSKKVPQCS]”, for which the IC50 worked out at 870 nM.
